Results reported in US20080161365A1, “Methylene Derivatives” (PFIZER INC., priority 2005, published 2008).
≈ marks a conversion by molar mass, not a printed value. Where “and” joins values, the source holds several entries; their conditions need not be identical. Equal values may be shown once.

How the values were obtained:
[1] = PDS solubility (Chemical Method 1, UV-visible absorbance of saturated solution); assay type: physicochemical; settings: thermodynamic from solid; pH 6.5 aqueous phosphate buffer, 5% glyme
Description: Solubility of a test compound of the present invention refers to solubility of the compound in a solvent mixture containing ethylene glycol dimethylether (“glyme”) and pH 6.5 aqueous phosphate buffer. The solubility was determined by measuring ultraviolet-visible absorbance of a saturated solution of the compound and comparing the absorbance value to absorbance values obtained for four standard solutions of the compound having known concentrations plotted on a 4-point ultraviolet-visible standard curve. […]
The prepared 96-well plate was transferred to a 96-well ultraviolet-visible plate reader, and the wells were scanned over wavelengths of from 220 nm to 350 nm with a step size of 2 nm. The ultraviolet-visible data (i.e., data generated at the same wavelength) were electronically exported to a spreadsheet and absorbance data for the filtrate of the saturated solution measured at one wavelength (i.e., the data that had the best linear fit as calculated by the highest regression coefficient, typically 0.98 or higher) and the corresponding standards absorbance data measured at the same wavelength were plotted as a standard absorbance-concentration curve based on the Lambert-Beer law. […] The calculated solubility was expressed as in milligrams of test compound in milliliters of solvent. […]

MMP-13 catalytic domain = target: T1, MMP-13 catalytic domain (Homo sapiens, UniProt P45452); assay: MMP-13 catalytic domain thiopeptolide hydrolysis inhibition (Biological Method 1); assay type: biochemical; settings: HEPES pH 7.0, 22° C.; read-out: MMP-13CD IC50
T1 construct: use the catalytic domain of the MMP-13 enzyme, namely matrix metalloproteinase-13 catalytic domain
Text: (§1) In general, the MMP inhibition assays measure the amount by which a test compound reduces the hydrolysis of a thiopeptolide substrate catalyzed by a matrix metalloproteinase enzyme. Such assays are described in detail by Ye et al., in Biochemistry, 1992;31(45):11231-11235, which is incorporated herein by reference.
Some of the particular methods described below use the catalytic domain of the MMP-13 enzyme, namely matrix metalloproteinase-13 catalytic domain (“MMP-13CD”), rather than the corresponding full-length enzyme, MMP-13. It has been shown previously by Ye Qi-Zhuang, Hupe D., and Johnson L. (Current Medicinal Chemistry, 1996;3:407-418) that inhibitor activity against a catalytic domain of an MMP is predictive of the inhibitor activity against the respective full-length MMP enzyme.
Thiopeptolide substrates show virtually no decomposition or hydrolysis at or below neutral pH in the absence of a matrix metalloproteinase enzyme. A typical thiopeptolide substrate commonly utilized for assays is Ac-Pro-Leu-Gly-thioester-Leu-Leu-Gly-OEt. A 100 μL assay mixture will contain 50 mM of N-2-hydroxyethylpiperazine-N′-2-ethanesulfonic acid buffer (“HEPES,” pH 7.0), 10 mM CaCl2, 100 μM thiopeptolide substrate, and 1 mM 5,5′-dithio-bis-(2-nitrobenzoic acid) (DTNB). The thiopeptolide substrate concentration may be varied, for example from 10 to 800 μM to obtain Km and Kcat values. The change in absorbance at 405 nm is monitored on a Thermo Max microplate reader (molecular Devices, Menlo Park, Calif.) at room temperature (22° C.). The calculation of the amount of hydrolysis of the thiopeptolide substrate is based on E412=13600 M^−1 cm^−1 for the DTNB-derived product 3-carboxy-4-nitrothiophenoxide. Assays are carried out with and without matrix metalloproteinase inhibitor compounds, and the amount of hydrolysis is compared for a determination of inhibitory activity of the test compounds. […]

MMP-1 full-length = target: T2, MMP-1 full-length (Homo sapiens, UniProt P03956); assay: MMP-1 full-length thiopeptolide hydrolysis inhibition; assay type: biochemical; settings: read-out: MMP-1FL IC50
T2 construct: have been assayed with MMP-1 full-length, MMP-2 full-length
T2 sequence (P03956 100-469): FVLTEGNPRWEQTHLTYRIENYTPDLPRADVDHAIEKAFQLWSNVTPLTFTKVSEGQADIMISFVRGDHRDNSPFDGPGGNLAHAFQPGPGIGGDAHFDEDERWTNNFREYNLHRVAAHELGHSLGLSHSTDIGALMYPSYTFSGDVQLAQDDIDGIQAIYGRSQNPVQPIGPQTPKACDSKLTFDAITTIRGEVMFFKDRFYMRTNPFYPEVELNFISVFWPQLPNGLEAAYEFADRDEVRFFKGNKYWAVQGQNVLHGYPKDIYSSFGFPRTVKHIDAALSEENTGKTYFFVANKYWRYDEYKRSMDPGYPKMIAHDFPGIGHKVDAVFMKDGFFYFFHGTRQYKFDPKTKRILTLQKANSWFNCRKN
Text: as §1
(§2) Thiopeptolide substrates show virtually no decomposition or hydrolysis at or below neutral pH in the absence of a matrix metalloproteinase enzyme. A typical thiopeptolide substrate commonly utilized for assays is Ac-Pro-Leu-Gly-thioester-Leu-Leu-Gly-OEt. A 100 μL assay mixture will contain 50 mM of N-2-hydroxyethylpiperazine-N′-2-ethanesulfonic acid buffer (“HEPES,” pH 7.0), 10 mM CaCl2, 100 μM thiopeptolide substrate, and 1 mM 5,5′-dithio-bis-(2-nitrobenzoic acid) (DTNB). The thiopeptolide substrate concentration may be varied, for example from 10 to 800 μM to obtain Km and Kcat values. The change in absorbance at 405 nm is monitored on a Thermo Max microplate reader (molecular Devices, Menlo Park, Calif.) at room temperature (22° C.). The calculation of the amount of hydrolysis of the thiopeptolide substrate is based on E412=13600 M^−1 cm^−1 for the DTNB-derived product 3-carboxy-4-nitrothiophenoxide. Assays are carried out with and without matrix metalloproteinase inhibitor compounds, and the amount of hydrolysis is compared for a determination of inhibitory activity of the test compounds.
(§3) Test compounds were evaluated at various concentrations in order to determine their respective IC50 values, the micromolar concentration of compound required to cause a 50% inhibition of catalytic activity of the respective enzyme.
(§4) The test described above for the inhibition of MMP-13 may also be adapted and used to determine the ability of the compounds of formula (I) to inhibit the matrix metalloproteases MMP-1, MMP-2, MMP-3, MMP-7, MMP-9, MMP-12, MMP-14, and MMP-17. […]

MMP-3 catalytic domain = target: T3, MMP-3 catalytic domain (Homo sapiens, UniProt P08254); assay: MMP-3 catalytic domain thiopeptolide hydrolysis inhibition; assay type: biochemical; settings: MES buffer pH 6.0; read-out: MMP-3CD IC50
T3 construct: MMP-2 full-length, MMP-3 catalytic domain, MMP-7 full-length
T3 sequence (P08254 100-272 limits assumed, species assumed): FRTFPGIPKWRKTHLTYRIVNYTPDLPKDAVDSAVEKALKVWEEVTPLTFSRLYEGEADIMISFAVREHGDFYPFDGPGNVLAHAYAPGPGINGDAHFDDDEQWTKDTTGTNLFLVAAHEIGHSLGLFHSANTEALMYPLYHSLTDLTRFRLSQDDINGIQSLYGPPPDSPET
Text: as §1, §2, §3
The assay buffer used with MMP-3CD was 50 mM N-morpholinoethane sulfonate (“MES”) at pH 6.0 rather than the HEPES buffer at pH 7.0 described above.
as §4

MMP-7 full-length = target: T4, MMP-7 full-length (Homo sapiens, UniProt P09237); assay: MMP-7 full-length thiopeptolide hydrolysis inhibition; assay type: biochemical; settings: read-out: MMP-7FL IC50
T4 construct: further screened with full-length MMP-2, full-length MMP-7, full-length MMP-9
T4 sequence (P09237 95-267): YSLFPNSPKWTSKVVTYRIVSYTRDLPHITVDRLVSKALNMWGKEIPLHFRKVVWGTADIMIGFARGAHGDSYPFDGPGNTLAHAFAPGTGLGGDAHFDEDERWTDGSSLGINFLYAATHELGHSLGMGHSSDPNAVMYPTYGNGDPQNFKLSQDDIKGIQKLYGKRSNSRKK
Text: as §1, §2, §3, §4

MMP-8 catalytic domain = target: T5, MMP-8 catalytic domain (Homo sapiens, UniProt P22894); assay: MMP-8 catalytic domain thiopeptolide hydrolysis inhibition; assay type: biochemical; settings: read-out: MMP-8CD IC50
T5 construct: MMP-7 full-length, MMP-8 catalytic domain, MMP-9 full-length
T5 sequence (P22894 100-262 limits assumed, species assumed): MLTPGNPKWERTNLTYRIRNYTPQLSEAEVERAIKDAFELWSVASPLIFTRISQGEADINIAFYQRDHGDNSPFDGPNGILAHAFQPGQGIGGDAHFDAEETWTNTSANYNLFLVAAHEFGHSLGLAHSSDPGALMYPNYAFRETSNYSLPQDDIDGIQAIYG
Text: as §1, §2, §3
Certain compounds of formula (I) have been assayed with MMP-1 full-length, MMP-2 full-length, MMP-3 catalytic domain, MMP-7 full-length, MMP-8 catalytic domain, MMP-9 full-length, MMP-12 catalytic domain, and MMP-14 catalytic domain.

MMP-9 full-length = target: T6, MMP-9 full-length (Homo sapiens, UniProt P14780); assay: MMP-9 full-length thiopeptolide hydrolysis inhibition; assay type: biochemical; settings: read-out: MMP-9FL IC50
T6 construct: further screened with full-length MMP-2, full-length MMP-7, full-length MMP-9
T6 sequence (P14780 94-707, species assumed): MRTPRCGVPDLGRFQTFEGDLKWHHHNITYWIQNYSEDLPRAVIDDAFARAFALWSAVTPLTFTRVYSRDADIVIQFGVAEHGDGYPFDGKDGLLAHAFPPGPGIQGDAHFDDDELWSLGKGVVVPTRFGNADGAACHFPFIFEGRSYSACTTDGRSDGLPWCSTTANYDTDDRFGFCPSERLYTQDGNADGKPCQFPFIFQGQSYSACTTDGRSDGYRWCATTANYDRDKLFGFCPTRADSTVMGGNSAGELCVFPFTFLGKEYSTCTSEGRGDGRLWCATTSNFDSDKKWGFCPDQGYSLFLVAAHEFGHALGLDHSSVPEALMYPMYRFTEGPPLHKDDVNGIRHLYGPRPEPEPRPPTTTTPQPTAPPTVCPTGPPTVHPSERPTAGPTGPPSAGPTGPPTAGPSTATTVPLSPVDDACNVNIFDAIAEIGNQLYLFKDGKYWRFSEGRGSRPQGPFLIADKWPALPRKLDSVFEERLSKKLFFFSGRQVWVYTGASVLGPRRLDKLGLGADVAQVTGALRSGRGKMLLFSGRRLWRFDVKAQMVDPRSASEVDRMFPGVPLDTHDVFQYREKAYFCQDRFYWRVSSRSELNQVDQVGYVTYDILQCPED
Text: as §1, §2, §3, §4

MMP-12 catalytic domain = target: T7, MMP-12 catalytic domain (Homo sapiens, UniProt P39900); assay: MMP-12 catalytic domain thiopeptolide hydrolysis inhibition; assay type: biochemical; settings: read-out: MMP-12CD IC50
T7 construct: MMP-9 full-length, MMP-12 catalytic domain, and MMP-14 catalytic domain
T7 sequence (P39900 106-263 limits assumed, species assumed): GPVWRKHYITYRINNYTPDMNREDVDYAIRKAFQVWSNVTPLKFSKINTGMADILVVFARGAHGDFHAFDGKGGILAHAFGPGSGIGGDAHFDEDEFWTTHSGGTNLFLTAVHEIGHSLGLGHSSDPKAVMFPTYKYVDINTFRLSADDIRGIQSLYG
Text: as §1, §2, §3, §4

MMP-14 catalytic domain = target: T8, MMP-14 catalytic domain (Homo sapiens, UniProt P50281); assay: MMP-14 catalytic domain thiopeptolide hydrolysis inhibition; assay type: biochemical; settings: read-out: MMP-14CD IC50
T8 construct: MMP-9 full-length, MMP-12 catalytic domain, and MMP-14 catalytic domain
Text: as §1, §2, §3, §4

MMP-2 full-length = target: T9, MMP-2 full-length (Homo sapiens, UniProt P08253); assay: MMP-2 full-length thiopeptolide hydrolysis inhibition; assay type: biochemical; settings: read-out: MMP-2FL IC50
T9 construct: further screened with full-length MMP-2, full-length MMP-7, full-length MMP-9
T9 sequence (P08253 110-660): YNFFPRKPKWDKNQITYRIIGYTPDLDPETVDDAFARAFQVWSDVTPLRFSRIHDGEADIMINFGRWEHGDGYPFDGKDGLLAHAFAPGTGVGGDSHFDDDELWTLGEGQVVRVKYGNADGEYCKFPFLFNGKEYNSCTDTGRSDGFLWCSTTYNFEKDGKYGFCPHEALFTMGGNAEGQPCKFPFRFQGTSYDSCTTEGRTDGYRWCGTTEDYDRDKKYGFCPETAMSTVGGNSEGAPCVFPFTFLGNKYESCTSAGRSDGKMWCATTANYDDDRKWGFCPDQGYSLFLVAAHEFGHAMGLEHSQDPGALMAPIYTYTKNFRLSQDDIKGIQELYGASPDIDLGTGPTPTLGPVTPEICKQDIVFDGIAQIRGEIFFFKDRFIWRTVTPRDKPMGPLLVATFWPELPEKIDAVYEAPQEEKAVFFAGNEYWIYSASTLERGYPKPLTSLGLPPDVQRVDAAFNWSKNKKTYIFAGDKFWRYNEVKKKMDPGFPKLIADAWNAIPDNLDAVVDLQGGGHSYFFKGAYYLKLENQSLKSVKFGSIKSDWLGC
Text: as §1
Thiopeptolide substrates show virtually no decomposition or hydrolysis at or below neutral pH in the absence of a matrix metalloproteinase enzyme. A typical thiopeptolide substrate commonly utilized for assays is Ac-Pro-Leu-Gly-thioester-Leu-Leu-Gly-OEt. A 100 μL assay mixture will contain 50 mM of N-2-hydroxyethylpiperazine-N′-2-ethanesulfonic acid buffer (“HEPES,” pH 7.0), 10 mM CaCl2, 100 μM thiopeptolide substrate, and 1 mM 5,5′-dithio-bis-(2-nitrobenzoic acid) (DTNB). The thiopeptolide substrate concentration may be varied, for example from 10 to 800 μM to obtain Km and Kcat values. The change in absorbance at 405 nm is monitored on a Thermo Max microplate reader (molecular Devices, Menlo Park, Calif.) at room temperature (22° C.). The calculation of the amount of hydrolysis of the thiopeptolide substrate is based on E412=13600 M^−1 cm^−1 for the DTNB-derived product 3-carboxy-4-nitrothiophenoxide. […]

solubility [1]	IC50 (MMP-13 catalytic domain)	IC50 (MMP-1 full-length)	IC50 (MMP-3 catalytic domain)	IC50 (MMP-7 full-length)	IC50 (MMP-8 catalytic domain)	IC50 (MMP-9 full-length)	IC50 (MMP-12 catalytic domain)	IC50 (MMP-14 catalytic domain)	IC50 (MMP-2 full-length)	Compound
27 µg/mL (≈ 56.9 µM)	0.028 µM and 0.039 µM	> 100 µM	11 µM	51 µM	> 30 µM	51 µM	> 100 µM	56 µM		Cc1cc(C(F)CCc2ccc(C(=O)O)cc2)cc(C(=O)NCc2cccc(C(F)(F)F)c2)n1 (stereo not shown) [Example 1, 4-{3-fluoro-3-[2-methyl-6-(3-trifluoromethyl-benzylcarbamoyl)-pyridin-4-yl]-propyl}-benzoic acid]
4 µg/mL	0.087 µM and 0.11 µM	> 100 µM	13 µM	1.7 µM	> 30 µM	64 µM	> 100 µM	> 100 µM	> 100 µM	Cc1cc(C(F)(F)CCc2ccc(C(=O)O)cc2)cc(C(=O)NCc2cccc(C(F)(F)F)c2)n1.O=C(O)C(F)(F)F [Example 2, 4-{3,3-difluoro-3-[2-methyl-6-(3-trifluoromethyl-benzylcarbamoyl)-pyridin-4-yl]-propyl}-benzoic acid monotrifluoroacetic acid salt]
	0.062 µM	> 100 µM	6 µM	< 10 µM	> 100 µM	< 10 µM	> 100 µM	> 100 µM	90 µM	Cc1cc(C(O)CCc2ccc(C(=O)O)cc2)cc(C(=O)NCc2cccc(C(F)(F)F)c2)n1 (stereo not shown) [Example 3, 4-{3-hydroxy-3-[2-methyl-6-(3-trifluoromethyl-benzylcarbamoyl)-pyridin-4-yl]-propyl}-benzoic acid]
